In patent publication US10065948B2, “Histone deacetylase inhibitors and compositions and methods of use thereof” (CHDI Foundation, Inc., priority 2014, dated 2018) one finds IC50 data, which are given here for seven compounds.

As usually defined, the IC50 is the concentration at which inhibition is half-maximal. The low end stands for greater potency, the high end for weaker potency.

The test system of assay [1] is cellular histone deacetylase enzymatic activity in Jurkat E6-1 cells. The assay can be described thus: Inhibition of cellular HDAC activity, Boc-Lys(Tfa)-AMC substrate (Cell Lys-TFA). The assay is classed as cell-based. The essentials:
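Jurkat E6-1 cells (75,000/well) were treated with a 16-point compound dilution for 2 h at 37 °C, then exposed to Boc-Lys(Tfa)-AMC for 3 h. Lysis buffer containing trypsin was added overnight (15-16 h), and AMC fluorescence was read at Ex 355/Em 460 nm.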

For assay [2], the target named is Histone Deacetylase 4 (HDAC4) catalytic domain (Homo sapiens (Human), UniProt P56524). The assay can be described thus: Biochemical HDAC inhibition assay, fluorogenic substrate Boc-Lys(Tfa)-AMC. The essentials: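 Human HDAC4 catalytic domain (aa 648-1032, C-terminal His6) at 0.2 μg/mL working solution was tested against a 16-point compound dilution series in Tris buffer pH 8.0 for 15 min at 37 °C. Substrate Boc-Lys(Tfa)-AMC was prepared at 50 μM (5×). The reaction was stopped with trypsin plus reference inhibitor for 1 h at 37 °C, and AMC fluorescence was read at Ex 355/Em 460 nm.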

Assay [3] has as its system cellular histone deacetylase activity (Lys-Ac). Briefly: Inhibition of cellular HDAC activity (Cell Lys-Ac). The following applies: Lys-Ac substrate. The assay is classed as cell-based.
[4] abbreviates: Homo sapiens, Jurkat E6.1, Lys-TFA substrate.

Where only a bound is given, the exact number is not on record here.

Histone Deacetylase 4 (HDAC4) catalytic domain, sequence (P56524 648-1032): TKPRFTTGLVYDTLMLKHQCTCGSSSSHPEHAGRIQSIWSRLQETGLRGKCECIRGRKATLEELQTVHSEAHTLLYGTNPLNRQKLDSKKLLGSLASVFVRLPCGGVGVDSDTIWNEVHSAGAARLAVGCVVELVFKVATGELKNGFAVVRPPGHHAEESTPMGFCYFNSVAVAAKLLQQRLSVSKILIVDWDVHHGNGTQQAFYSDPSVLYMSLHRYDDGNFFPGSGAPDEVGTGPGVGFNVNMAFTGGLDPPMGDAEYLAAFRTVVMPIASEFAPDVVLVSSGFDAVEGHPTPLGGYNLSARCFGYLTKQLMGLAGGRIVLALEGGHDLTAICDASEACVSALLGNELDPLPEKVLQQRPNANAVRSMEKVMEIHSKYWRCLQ

Turning to `Cc1cnccc1-n1cc2c(n1)C[C@](C(=O)NO)(c1cccc(F)c1C)C2` [Example 27, (S)-5-(3-fluoro-2-methylphenyl)-N-hydroxy-2-(3-methylpyridin-4-yl)-2,4,5,6-tetrahydrocyclopenta[c]pyrazole-5-carboxamide], the IC50 in assay [1] (setting [4]) was 116 nM; in assay [2], 53 nM; in assay [3] it was over 50000 nM.
`Cc1c(F)cccc1C1(C(=O)NO)CCc2c(cnn2-c2ccccc2)C1` (single isomer, unassigned) [Example 31, E1-(abs)-5-(3-Fluoro-2-methylphenyl)-N-hydroxy-1-phenyl-4,5,6,7-tetrahydro-1H-indazole-5-carboxamide]: the IC50 is 72 nM in assay [1] (Lys-TFA substrate), 820 nM in assay [2] and over 50000 nM in assay [3].
For the compound `Cc1c(F)cccc1C1(C(=O)NO)Cc2nc(-c3cnn(C)c3C)sc2C1` (single isomer, unassigned) [Example 77, E2-(abs)-2-(1,5-dimethyl-1H-pyrazol-4-yl)-5-(3-fluoro-2-methylphenyl)-N-hydroxy-5,6-dihydro-4H-cyclopenta[d]thiazole-5-carboxamide], the IC50 in assay [1] (Lys-TFA substrate) is 128 nM; in assay [2], 200 nM; in assay [3] it was over 50000 nM.
On to `Cc1c(F)cccc1[C@]1(C(=O)NO)Cc2cnn(-c3c(F)cccc3Cl)c2C1` [Example 14, (S)-1-(2-Chloro-6-fluorophenyl)-5-(3-fluoro-2-methylphenyl)-N-hydroxy-1,4,5,6-tetrahydrocyclopenta[c]pyrazole-5-carboxamide], for which the IC50 in assay [1] (setting [4]) is 11 nM; in assay [2], 15 nM; in assay [3] it was over 50000 nM.
Regarding `COc1ccc(-c2nc3c(s2)C[C@@](C(=O)NO)(c2cccc(F)c2C)C3)nc1` [Example 71, (R)-5-(3-Fluoro-2-methylphenyl)-N-hydroxy-2-(5-methoxypyridin-2-yl)-5,6-dihydro-4H-cyclopenta[d]thiazole-5-carboxamide], the IC50 in assay [1] (setting [4]) was 56 nM; in assay [2], 95 nM; in assay [3], over 50000 nM.
For `Cc1c(F)cccc1[C@]1(C(=O)NO)Cc2cn(-c3ncccc3F)nc2C1` [Example 29, (S)-5-(3-Fluoro-2-methylphenyl)-2-(3-fluoropyridin-2-yl)-N-hydroxy-2,4,5,6-tetrahydrocyclopenta[c]pyrazole-5-carboxamide], the IC50 in assay [1] (setting [4]) was 69 nM; in assay [2], 104 nM; in assay [3], over 50000 nM.
For `Cc1c(F)cccc1[C@]1(C(=O)NO)Cc2cn(-c3ncccc3Cl)nc2C1` [Example 28, (S)-2-(3-Chloropyridin-2-yl)-5-(3-fluoro-2-methylphenyl)-N-hydroxy-2,4,5,6-tetrahydrocyclopenta[c]pyrazole-5-carboxamide], the IC50 in assay [1] (setting [4]) is 69 nM; in assay [2], 65 nM; in assay [3], over 50000 nM.
